Data set [1] relates to MRC-5 fibroblasts. In words: In vitro cytotoxicity assay on MRC-5 fibroblasts. Type of data set: cell-based. To be noted: for SI (selectivity index): IC50 (MRC-5)/MIC (H37Rv). The procedure: (§1) The cytotoxicity of compounds on MRC-5 fibroblasts was performed exactly as previously reported.
Data set [2] can be described thus: In vitro cytotoxicity assay on MRC-5 fibroblasts. Conditions: human. The format is cell-based. The protocol:
as §1

Data set [3] concerns M. tuberculosis H37Rv (ATCC 27294). In words: In vitro antituberculosis assay (MIC, broth microdilution). Type of data set: cell-based, Mycobacterium tuberculosis. Conditions: for MIC: read-out: MIC (H37Rv).
Data set [4] concerns the target T1, MtbTMPK (Mycobacterium tuberculosis, UniProt P9WKE1). In words: MtbTMPK enzymatic assay (spectrophotometric coupled assay). Type of data set: biochemical. Conditions: for MtbTMPK inhibitory potency, in words: qualitative statement, compared with 3. The procedure: The enzymatic assay was performed as previously reported on the recombinant purified MtbTMPK [14, 33]. As described by Blondin et al., compounds were evaluated by a serial dilution method using the spectrophotometric assay at fixed concentrations of adenosine triphosphate (ATP) (0.5 mM) and thymidine monophosphate (dTMP; 0.05 mM). The reaction medium includes 50-mM Tris-HCl; pH 7.4; 50-mM KCl; 2-mM MgCl2; 0.2-mM nicotinamide adenine dinucleotide (NADH); 1-mM phosphoenol pyruvate and 2 units each of coupling enzymes (lactate dehydrogenase, pyruvate kinase and nucleoside diphosphate kinase). From the experimental data, the IC50 value was calculated using KaleidaGraph 4.5.3.

The target of data set [5] is T1, MtbTMPK. Also on record: method as in PMID 29510037, PMID 27614917.
The subject of data set [6] is M. tuberculosis H37Rv (ATCC 27294). Conditions: previously reported values; cited from earlier work.
Setting [7] is: cytotoxicity against MRC-5 fibroblasts, read-out: IC50 (MRC-5).
Setting [8] is: ATP 0.5 mM, dTMP 0.05 mM, mean ± SD of at least two measurements, NI: no inhibition at a concentration of 0.2 mM, read-out: IC50 (MtbTMPK).
[9] abbreviates: Mycobacterium tuberculosis, minimum concentration required to inhibit >99% growth of M. tuberculosis H37Rv in liquid culture, 7–14 days.

In brackets after ≈: the same amount, converted by molar mass. Where two headings read alike, the source gives them in different places.

T1 sequence (P9WKE1 whole entry, looked up): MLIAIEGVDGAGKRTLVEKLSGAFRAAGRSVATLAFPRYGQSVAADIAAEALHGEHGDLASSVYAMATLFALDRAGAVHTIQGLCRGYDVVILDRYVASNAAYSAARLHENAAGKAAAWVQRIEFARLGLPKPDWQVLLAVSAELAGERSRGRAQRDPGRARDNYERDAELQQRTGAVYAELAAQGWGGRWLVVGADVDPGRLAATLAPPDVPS

In general, IC50 refers to the concentration that gives 50% inhibition. Usually MIC stands for the least concentration at which growth counts as inhibited. Regarding `Cc1ccc(Oc2cccc(CCN3CCC(n4cc(C)c(=O)[nH]c4=O)CC3)c2)cc1` [Compound 21f, 5-Methyl-1-(1-(3-(p-tolyloxy)phenethyl)piperidin-4-yl)pyrimidine-2,4(1H,3H)-dione], the “SI (selectivity index)” value in data set [1] was 0.44. Further, the IC50 turned out to be 8.42 µM in data set [2] (setting [7]) and 49 ± 7 µM in data set [4] (setting [8]). For the same compound, in data set [3] (Mycobacterium tuberculosis), the MIC stood at 19 µM (≈ 7.97 µg/mL).
The compound “1-(1-(3-((3,4-Dichlorobenzyl)oxy)phenethyl)piperidin-4-yl)-5-methylpyrimidine-2,4(1H,3H)-dione [Compound 21p]” gave an IC50 in data set [1] (cytotoxicity against MRC-5 fibroblasts) of 4.22 µM. The MIC in data set [3] (minimum concentration required to inhibit >99% growth of M. tuberculosis H37Rv in liquid culture, 7–14 days) is 12.5 µM.
On to `Cc1cn(C2CCN(C(=O)Cc3cccc(Oc4ccccc4)c3)CC2)c(=O)[nH]c1=O` [Compound 26, 5-Methyl-1-(1-(2-(3-phenoxyphenyl)acetyl)piperidin-4-yl)pyrimidine-2,4(1H,3H)-dione], for which, in data set [2], the IC50 is > 64 µM. Further, in data set [3] (setting [9]), the MIC was > 50 µM. In addition, in data set [4], the IC50 is 230 ± 63 µM and the “MtbTMPK inhibitory potency, in words” value is reported as “weak enzyme inhibition”.
In the case of `Cc1cn(C2CCN(CCc3cccc(Oc4ccccc4)c3)CC2)c(=O)[nH]c1=O` [Compound 3, reference compound], the IC50 is 11 µM in data set [5] (previously reported values; read-out: IC50 (MtbTMPK), reported; cited from earlier work); > 64 µM in data set [2] (setting [7]); 17 ± 2 µM in data set [4] (setting [8]). The “SI (selectivity index)” value in data set [1] is recorded as >1.73. The MIC in data set [3] (Mycobacterium tuberculosis) was determined as 37 µM (≈ 15 µg/mL). Moreover, in data set [6], the “MIC (H37Rv), reported” value was 37 µM (≈ 15 µg/mL).
In the case of `c1ccc(Oc2cccc(CCN3CCC(c4ccccc4)CC3)c2)cc1` [Compound 27, 1-(3-Phenoxyphenethyl)-4-phenylpiperidine], the “SI (selectivity index)” value in data set [1] stood at 1.29. In addition, the “cytotoxicity (MRC-5), in words” value in data set [1] (qualitative statement, relative to antimycobacterial activity) is given as “equipotent cytotoxicity”. Further, the IC50 is 8.06 µM in data set [2] and > 200 µM in data set [4] (read-out: IC50 (MtbTMPK), ATP 0.5 mM, dTMP 0.05 mM, mean ± SD of at least two measurements, NI: no inhibition at a concentration of 0.2 mM). Besides, the MIC in data set [3] (setting [9]) is 6.25 µM (≈ 2.23 µg/mL). Besides, in data set [3] (qualitative statement), the “antimycobacterial activity (H37Rv), in words” value is recorded as “potent antimycobacterial activity”. The “MtbTMPK inhibitory potency, in words” value in data set [4] is “complete loss of the inhibitory potency”.
Consider `Cc1cn(C2CCN(CCc3cccc(Oc4ccc(Cl)c(Cl)c4)c3)CC2)c(=O)[nH]c1=O` [Compound 21g, 1-(1-(3-(3,4-Dichlorophenoxy)phenethyl)piperidin-4-yl)-5-methylpyrimidine-2,4(1H,3H)-dione], for which, in data set [1], the “SI (selectivity index)” value is 0.30. For the same compound, the IC50 in data set [2] (setting [7]) came to 5.66 µM; in data set [4] (setting [8]), 45 ± 2 µM. In addition, the MIC in data set [3] (Mycobacterium tuberculosis) came to 19 µM (≈ 9.01 µg/mL).
In the case of `Cc1cn(C2CCCN(CCc3cccc(Oc4ccccc4)c3)C2)c(=O)[nH]c1=O` (centres unmarked) [Compound 23, 5-Methyl-1-(1-(3-phenoxyphenethyl)piperidin-3-yl)pyrimidine-2,4(1H,3H)-dione], the results for the IC50 in data set [2] and in data set [4] were 21.8 µM and 192 ± 53 µM, respectively. In addition, the MIC in data set [3] (setting [9]) was > 50 µM. For the same compound, the “loss/decrease in MtbTMPK inhibitory potency relative to 3” value in data set [4] (compared with compound 3) is on record as > 10 fold.
As for `Cc1cn(C2CCCN(Cc3cccc(Oc4ccccc4)c3)C2)c(=O)[nH]c1=O` (centres unmarked) [Compound 1], the IC50 in data set [5] (read-out: IC50 (MtbTMPK), reported; previously reported values; cited from earlier work) is 21 µM.
In the case of `COc1ccc(Oc2cccc(CCN3CCC(n4cc(C)c(=O)[nH]c4=O)CC3)c2)cc1` [Compound 21i, 1-(1-(3-(4-Methoxyphenoxy)phenethyl)piperidin-4-yl)-5-methylpyrimidine-2,4(1H,3H)-dione], in data set [1], the “SI (selectivity index)” value is >2.56. Further, the IC50 was > 64 µM in data set [2] (setting [7]) and 34 ± 5 µM in data set [4] (setting [8]). Besides, the MIC in data set [3] (Mycobacterium tuberculosis) was 25 µM (≈ 10.9 µg/mL).
Take `Cc1cn(C2CCN(CCc3ccccc3)CC2)c(=O)[nH]c1=O` [Compound 21a, 5-Methyl-1-(1-phenethylpiperidin-4-yl)pyrimidine-2,4(1H,3H)-dione]: the IC50 in data set [2] (setting [7]) is > 64 µM; in data set [4] (setting [8]), 680 ± 90 µM. The MIC in data set [3] (Mycobacterium tuberculosis) is > 50 µM. Moreover, in data set [4] (compared with compound 3), the “loss/decrease in MtbTMPK inhibitory potency relative to 3” value worked out at 40 fold.
Turning to `Cc1cn(C2CCN(CCc3cccc(Oc4ccc([N+](=O)[O-])cc4)c3)CC2)c(=O)[nH]c1=O` [Compound 21l, 5-Methyl-1-(1-(3-(4-nitrophenoxy)phenethyl)piperidin-4-yl)pyrimidine-2,4(1H,3H)-dione], in data set [1], the “SI (selectivity index)” value is listed as >1.73. In addition, the results for the IC50 in data set [2] (setting [7]) and in data set [4] (setting [8]) were > 64 µM and 91 ± 10 µM, respectively. For the same compound, the MIC in data set [3] (Mycobacterium tuberculosis) amounted to 37 µM (≈ 16.7 µg/mL). Also, the “MtbTMPK inhibitory potency, in words” value in data set [4] is recorded as “significant drop in MtbTMPK inhibitory potency”.
For the compound `Cc1cn(C2CCN(CCc3cccc(Oc4cccc(Cl)c4)c3)CC2)c(=O)[nH]c1=O` [Compound 21j, 1-(1-(3-(3-Chlorophenoxy)phenethyl)piperidin-4-yl)-5-methylpyrimidine-2,4(1H,3H)-dione], the “SI (selectivity index)” value in data set [1] is on record as 1.33. Moreover, the IC50 in data set [2] (setting [7]) turned out to be 25.2 µM. Further, the MIC in data set [3] (Mycobacterium tuberculosis) was 19 µM (≈ 8.36 µg/mL). Also, the “improvement of H37Rv growth inhibitory activity relative to 3” value in data set [3] (compared with compound 3) was “two”. Moreover, the “improvement of MtbTMPK inhibitory potency relative to 3” value in data set [4] (compared with compound 3) is on record as “three”. Also, the “MtbTMPK inhibitory potency, in words” value in data set [4] is reported as “significant improvement in the inhibitory potency”.
Consider `Cc1cn(C2CCN(CCc3ccccc3Oc3ccccc3)CC2)c(=O)[nH]c1=O` [Compound 21c, 5-Methyl-1-(1-(2-phenoxyphenethyl)piperidin-4-yl)pyrimidine-2,4(1H,3H)-dione], for which the “SI (selectivity index)” value in data set [1] is reported as 0.54. For the same compound, the IC50 in data set [2] (setting [7]) turned out to be 26.8 µM; in data set [4] (setting [8]), 100 ± 15 µM. In data set [3] (Mycobacterium tuberculosis), the MIC was determined as 50 µM (≈ 20.3 µg/mL). In data set [4], the “MtbTMPK inhibitory potency, in words” value is given as “negative effect on the inhibitory activity”.
Consider `Cc1cn(C2CCN(CCc3ccc(-c4ccccc4)cc3)CC2)c(=O)[nH]c1=O` [Compound 21b, 1-(1-(2-([1,1’-Biphenyl]-4-yl)ethyl)piperidin-4-yl)-5-methylpyrimidine-2,4(1H,3H)-dione], for which the IC50 is 22.2 µM in data set [2] (setting [7]) and > 200 µM in data set [4] (setting [8]). The MIC in data set [3] (Mycobacterium tuberculosis) is > 50 µM. In data set [4], the “MtbTMPK inhibitory potency, in words” value is “complete loss of enzyme inhibitory potency”.
`Cc1cn(C2CCN(CCc3cccc(Oc4ccc(C(F)(F)F)cc4)c3)CC2)c(=O)[nH]c1=O` [Compound 21m, 5-Methyl-1-(1-(3-(4-(trifluoromethyl)phenoxy)phenethyl)piperidin-4-yl)pyrimidine-2,4(1H,3H)-dione]: the “SI (selectivity index)” value in data set [1] is recorded as >1.73. Further, the results for the IC50 in data set [2] (setting [7]) and in data set [4] (setting [8]) were > 64 µM and 135 ± 22 µM, respectively. In addition, the MIC in data set [3] (Mycobacterium tuberculosis) turned out to be 37 µM (≈ 17.5 µg/mL). Besides, the “MtbTMPK inhibitory potency, in words” value in data set [4] is on record as “significant drop in MtbTMPK inhibitory potency”.
For the compound `Cc1cn(C2CCN(CCc3cccc(OCc4ccccc4Cl)c3)CC2)c(=O)[nH]c1=O` [Compound 21o, 1-(1-(3-((2-Chlorobenzyl)oxy)phenethyl)piperidin-4-yl)-5-methylpyrimidine-2,4(1H,3H)-dione], the “SI (selectivity index)” value in data set [1] is reported as 0.37. Moreover, the values for the IC50 in data set [2] (setting [7]) and in data set [4] (setting [8]) were 7.08 µM and 70 ± 9 µM, respectively. In addition, in data set [3] (Mycobacterium tuberculosis), the MIC came to 19 µM (≈ 8.63 µg/mL).
For `Cc1cn(C2CCN(CCc3cccc(Oc4ccc(C#N)cc4)c3)CC2)c(=O)[nH]c1=O` [Compound 21k, 4-(3-(2-(4-(5-Methyl-2,4-dioxo-3,4-dihydropyrimidin-1(2H)-yl)piperidin-1-yl)ethyl)phenoxy)benzonitrile], the IC50 in data set [2] (setting [7]) was > 64 µM; in data set [4] (setting [8]), 126 ± 10 µM. The MIC in data set [3] (Mycobacterium tuberculosis) is ≥ 50 µM. For the same compound, the “MtbTMPK inhibitory potency, in words” value in data set [4] is on record as “significant drop in MtbTMPK inhibitory potency”.
As for `Cc1cn(C2CCN(CCc3ccc(Oc4ccccc4)cc3)CC2)c(=O)[nH]c1=O` [Compound 21e, 5-Methyl-1-(1-(4-phenoxyphenethyl)piperidin-4-yl)pyrimidine-2,4(1H,3H)-dione], the IC50 is > 64 µM in data set [2] (setting [7]) and 160 ± 22 µM in data set [4] (setting [8]). The MIC in data set [3] (Mycobacterium tuberculosis) is > 50 µM. In addition, the “MtbTMPK inhibitory potency, in words” value in data set [4] was “negative effect on the inhibitory activity”.
As for `Cc1cn(C2CCN(CCc3cccc(OCc4cccc(Cl)c4)c3)CC2)c(=O)[nH]c1=O` [Compound 21q, 1-(1-(3-((3-Chlorobenzyl)oxy)phenethyl)piperidin-4-yl)-5-methylpyrimidine-2,4(1H,3H)-dione], the “SI (selectivity index)” value in data set [1] is 0.79. In addition, the IC50 in data set [2] (setting [7]) was 19.8 µM; in data set [4] (setting [8]), 44 ± 2 µM. For the same compound, in data set [3] (Mycobacterium tuberculosis), the MIC was 25 µM (≈ 11.3 µg/mL).
Turning to `Cc1cn(C2CCN(CCc3cccc(Oc4ccc(Cl)cc4)c3)CC2)c(=O)[nH]c1=O` [Compound 21h, 1-(1-(3-(4-Chlorophenoxy)phenethyl)piperidin-4-yl)-5-methylpyrimidine-2,4(1H,3H)-dione], the “SI (selectivity index)” value in data set [1] amounted to 0.46. The IC50 was determined as 5.81 µM in data set [2] (setting [7]) and 49 ± 8 µM in data set [4] (setting [8]). Besides, the MIC in data set [3] (Mycobacterium tuberculosis) came out at 12.5 µM (≈ 5.5 µg/mL). The “increase in IC50-value (MtbTMPK) relative to 21j” value in data set [4] (compared with isomer 21j) amounted to 10 fold.

These data come from paper PMC7356956, “1-(1-Arylethylpiperidin-4-yl)thymine Analogs as Antimycobacterial TMPK Inhibitors” (Molecules, 2020).
